Reference: patent US20250312469A1 (CANGET BIOTEKPHARMA, priority 2024, published 2025)

Key:
Hepatocyte stability = conditions: for hepatocyte CLint at 0.5 μM / half-life at 0.5 μM: both, human, hepatocytes; for hepatocyte CLint at 0.5 μM: pH 7.4, Clint (intrinsic clearance); for hepatocyte CLint at 0.5 μM / half-life at 0.5 μM / % Remaining: cryopreserved human hepatocytes; for half-life at 0.5 μM: pH 7.4, Half-life
CYP1A2 mRNA = assay: CYP induction (mRNA) in fresh human hepatocytes
Source text: (§1) (2) CYP positive inducers (Table 58a) and Williams' Medium E (WME) were purchased from Sigma-Aldrich (St. Louis, MO, USA). Dulbecco's phosphate-buffered saline (DPBS, pH 7.4) was purchased from Invitrogen (Carlsbad, CA, USA). Hepatocyte culture medium (serum-free) for CYP induction was purchased from XenoTech (catalog #K2300, Lenexa, KS, USA). The CellTiter 96 AQueous ONE Solution Cell Proliferation Assay was obtained from Promega (Madison, WI, USA). All other chemicals and reagents were of analytical grade or higher. (3) Fresh human hepatocytes (Table 58b) seeded at ˜0.15 million cells/well in 48-well plates (˜0.75 million cells/mL) were purchased from Thermo Fisher Scientific (Grand Island, NY, USA) and BioreclamationIVT (Baltimore, MD, USA).
(§2) Vehicle controls were treated in parallel with hepatocyte culture medium. […] (2) After the CYP induction treatment, the cells were used for a cell viability assay. […] The absorbance of formazan, which is proportional to the number of viable cells, was measured spectrophotometrically using the CellTiter 96 AQueous ONE Solution Cell Proliferation Assay. […] (3) Total RNA was isolated from the treated cells using the RNeasy mini kit (Qiagen, Valencia, CA, USA) and treated with RNase-free DNase (Qiagen) following the manufacturer's protocols. The concentration of RNA was determined using a Qubit Fluorometer with a Qubit RNA HS assay kit (Invitrogen). cDNA was synthesized from up to 1 μg of the total RNA harvested from the cells using a QuantiTect RT kit (Qiagen). Analysis of gene expression by qPCR was performed using the LightCycler 480 System (Roche Diagnostics Corporation, Indianapolis, IN, USA).

CYP2B6 mRNA = assay: CYP induction (mRNA) in fresh human hepatocytes
Source text: as §1, §2

## CCC1(O)C(=O)OCc2c1cc1n(c2=O)Cc2cc3cc4c(cc3nc2-1)OCO4 (stereo not shown) [FL118]
Hepatocyte stability; 0.5 μM
  half-life: long half-life
Hepatocyte stability; calculated (in parentheses)
  hepatocyte CLint at 0.5 μM: 2.96 µL/min/1e6 cells
Hepatocyte stability; bound
  hepatocyte CLint at 0.5 μM: < 3.85 µL/min/1e6 cells
Hepatocyte stability; calculated (in parentheses), calculated half-life longer than the experiment
  half-life at 0.5 μM: 2.6 h
Hepatocyte stability; expressed as > the longest incubation time (120 min)
  half-life at 0.5 μM: > 2 h
Hepatocyte stability; 0 min
  % Remaining: 100%
Hepatocyte stability; 15 min
  % Remaining: 79%
Hepatocyte stability; 30 min
  % Remaining: 71%
Hepatocyte stability; 60 min
  % Remaining: 66%
Hepatocyte stability; 120 min
  % Remaining: 58%
CYP1A2 mRNA; donor 1, 0.01 μM
  % of OME-treated Cells: 0.15%
  induction of CYP1A2 mRNA: < 2 fold
CYP1A2 mRNA; donor 1, 0.1 μM
  % of OME-treated Cells: 1.1%
  induction of CYP1A2 mRNA: 2.0 fold
CYP1A2 mRNA; donor 1, 1 μM
  % of OME-treated Cells: 2.6%
  induction of CYP1A2 mRNA: 3.4 fold
CYP1A2 mRNA; donor 2, 0.001 μM
  % of OME-treated Cells: 0.88%
  induction of CYP1A2 mRNA: 2.3 fold
CYP1A2 mRNA; donor 2, 0.005 μM
  % of OME-treated Cells: 1.0%
  induction of CYP1A2 mRNA: 2.5 fold
CYP1A2 mRNA; donor 2, 0.01 μM
  % of OME-treated Cells: 2.6%
  induction of CYP1A2 mRNA: 4.9 fold
CYP1A2 mRNA; donor 3, 0.025 μM
  % of OME-treated Cells: 1.6%
  induction of CYP1A2 mRNA: 2.0 fold
CYP1A2 mRNA; donor 3, 0.05 μM
  % of OME-treated Cells: 1.6%
  induction of CYP1A2 mRNA: 2.1 fold
CYP2B6 mRNA; Donor 1, 0.01 μM, negative values treated as zero
  % of PB-treated Cells: 0%
CYP2B6 mRNA; Donor 1, 0.1 μM, negative values treated as zero
  % of PB-treated Cells: 0%
CYP2B6 mRNA; Donor 1, 1 μM, negative values treated as zero
  % of PB-treated Cells: 0%
CYP2B6 mRNA; Donor 3, 0.025 μM, negative values treated as zero
  % of PB-treated Cells: 0%
CYP2B6 mRNA; Donor 3, 0.05 μM, negative values treated as zero
  % of PB-treated Cells: 0%
CYP2B6 mRNA; donor 1, 0.01, 0.1, 1 μM
  induction of CYP2B6 mRNA: did not increase CYP2B6 mRNA
CYP2B6 mRNA; donor 2, 0.001 μM
  % of PB-treated Cells: 0.70%
CYP2B6 mRNA; donor 2, 0.005 μM
  % of PB-treated Cells: 0.43%
CYP2B6 mRNA; donor 2, 0.01 μM
  % of PB-treated Cells: 0.11%
CYP2B6 mRNA; donor 2, 0.001, 0.005, 0.01 μM
  induction of CYP2B6 mRNA: did not increase CYP2B6 mRNA
CYP2B6 mRNA; donor 3, 0.025, 0.05 μM
  induction of CYP2B6 mRNA: did not increase CYP2B6 and CYP3A4 mRNA
